# Test results reported in patent US20210252011A1, “TREATMENT OF GLIOBLASTOMA WITH FASN INHIBITORS” (FORMA Therapeutics, Inc., priority 2017, published 2021).
# Columns and labels:
# FASN enzyme = molecular target: T1, FASN enzyme (Homo sapiens, UniProt P49327); assay: Enzymatic assay for FASN inhibitors; format: biochemical; conditions: 40 nM FASN enzyme, 25° C.
# T1 construct: incubated with 10 μL of 40 nM FASN enzyme in assay buffer
# Method: Assays were performed in a 384-well black plate to measure the inhibition of FASN activity by individual compounds disclosed herein. An aliquot of 250 nL of compound was incubated with 10 μL of 40 nM FASN enzyme in assay buffer (50 mM HEPES (pH=7.3), 0.5 mM EDTA, 1 mM ascorbate, 100 mM sodium chloride and 0.04% TritonX-100) in each well at 25° C. for 60 minutes. After the plate was centrifuged briefly, 10 μL of substrate mix (20 μM acetyl-CoA, 60 μM malonyl-CoA, and 100 μM NADPH in assay buffer) was added to each well. The reaction was maintained at 25° C. for 90 minutes. The reaction was then quenched by adding 10 μL of 90 μM 7-diethylamino-3-(4′-maleimidylpheynyl)-4-methylcoumarin in 50/50 ethanol/water solution. The assay plate was incubated at 25° C. for 15 minutes and read on a plate reader with excitation and emission wavelengths at 360 nm and 530 nm, respectively. The IC50 of a given compound was calculated by fitting the dose response curve with a four-parameter logistic equation. Data shown below in Table B, where compounds having an activity designated as “A” provided an IC50<100 nm and compounds having an activity designated as “B” provided an IC50 of 100 nm-1.00 μM.
# [1] = Determination of brain exposure in Balb/c nude mice following oral administration; format: in vivo; conditions: 5 mg/kg oral gavage; for Brain (μM) at 2 h / Plasma (μM) at 2 h / [Brain]/[Plasma] at 2 h: 2 h post dose; for Brain (μM) at 8 h / Plasma (μM) at 8 h / [Brain]/[Plasma] at 8 h: 8 h post dose; for Brain (μM) at 2, 8 h (single value) / Plasma (μM) at 2, 8 h (single value) / Kp: one value given, time point (2 or 8 h) not stated; for Kp: mouse, brain/plasma, read-out: [Brain]/[Plasma] at 2, 8 h (single value)
# Method: Balb/c nude mice (body weight: 20-30 g; age range: approximately 6-8 weeks) were purchased from a qualified provider and acclimated for 5-7 days. The dosing formulation (dose: 5 mg/kg; concentration: 0.5 mg/mL; vehicle: PEG400:ethanol (v/v 9:1)) was prepared on the day of dosing and administered via oral gavage (dose volume: 10 mL/kg) to the mice (n=3 animals per time point). At the desired time point (2 or 8 h post dose) approximately 0.03 mL of blood sample was collected via venipuncture of peripheral veins into Heparin Na tubes and immediately placed on ice. After gently reverting the tube for approximately 10 seconds, the blood sample was centrifuged at 4,000×g for 5 minutes at 4° C. Supernatant was transferred into a micro-centrifuge tube and kept in a −80° C. freezer. Prior to brain collection, mice were fully exsanguinated via the following procedure: the chest cavity was opened, the ventricle was cut and a gentle iv saline flush (saline flush volume ˜20 mL) was performed with the animal placed head down at a 45 degree angle to facilitate blood removal. Brain samples were collected at the desired time point (2 or 8 h post dose), quick frozen in an ice box, and kept at −75±15° C. All brain samples were weighed and homogenated with buffer (brain weight (g) to PBS volume (mL) ratio of 1:4) before analysis. The actual concentration is the detected value multiplied by the dilution factor. For plasma sample analysis, plasma samples were quantified against a standard curve in plasma of Balb/c nude mice using an LC-MS/MS Method. For brain sample analysis, brain samples were quantified against a standard curve in brain homogenate of Balb/c nude mice using an LC-MS/MS Method. Each standard curve covered at least 6 calibration points including lower limit of quantification (LLOQ).
# T1 sequence (P49327 whole entry): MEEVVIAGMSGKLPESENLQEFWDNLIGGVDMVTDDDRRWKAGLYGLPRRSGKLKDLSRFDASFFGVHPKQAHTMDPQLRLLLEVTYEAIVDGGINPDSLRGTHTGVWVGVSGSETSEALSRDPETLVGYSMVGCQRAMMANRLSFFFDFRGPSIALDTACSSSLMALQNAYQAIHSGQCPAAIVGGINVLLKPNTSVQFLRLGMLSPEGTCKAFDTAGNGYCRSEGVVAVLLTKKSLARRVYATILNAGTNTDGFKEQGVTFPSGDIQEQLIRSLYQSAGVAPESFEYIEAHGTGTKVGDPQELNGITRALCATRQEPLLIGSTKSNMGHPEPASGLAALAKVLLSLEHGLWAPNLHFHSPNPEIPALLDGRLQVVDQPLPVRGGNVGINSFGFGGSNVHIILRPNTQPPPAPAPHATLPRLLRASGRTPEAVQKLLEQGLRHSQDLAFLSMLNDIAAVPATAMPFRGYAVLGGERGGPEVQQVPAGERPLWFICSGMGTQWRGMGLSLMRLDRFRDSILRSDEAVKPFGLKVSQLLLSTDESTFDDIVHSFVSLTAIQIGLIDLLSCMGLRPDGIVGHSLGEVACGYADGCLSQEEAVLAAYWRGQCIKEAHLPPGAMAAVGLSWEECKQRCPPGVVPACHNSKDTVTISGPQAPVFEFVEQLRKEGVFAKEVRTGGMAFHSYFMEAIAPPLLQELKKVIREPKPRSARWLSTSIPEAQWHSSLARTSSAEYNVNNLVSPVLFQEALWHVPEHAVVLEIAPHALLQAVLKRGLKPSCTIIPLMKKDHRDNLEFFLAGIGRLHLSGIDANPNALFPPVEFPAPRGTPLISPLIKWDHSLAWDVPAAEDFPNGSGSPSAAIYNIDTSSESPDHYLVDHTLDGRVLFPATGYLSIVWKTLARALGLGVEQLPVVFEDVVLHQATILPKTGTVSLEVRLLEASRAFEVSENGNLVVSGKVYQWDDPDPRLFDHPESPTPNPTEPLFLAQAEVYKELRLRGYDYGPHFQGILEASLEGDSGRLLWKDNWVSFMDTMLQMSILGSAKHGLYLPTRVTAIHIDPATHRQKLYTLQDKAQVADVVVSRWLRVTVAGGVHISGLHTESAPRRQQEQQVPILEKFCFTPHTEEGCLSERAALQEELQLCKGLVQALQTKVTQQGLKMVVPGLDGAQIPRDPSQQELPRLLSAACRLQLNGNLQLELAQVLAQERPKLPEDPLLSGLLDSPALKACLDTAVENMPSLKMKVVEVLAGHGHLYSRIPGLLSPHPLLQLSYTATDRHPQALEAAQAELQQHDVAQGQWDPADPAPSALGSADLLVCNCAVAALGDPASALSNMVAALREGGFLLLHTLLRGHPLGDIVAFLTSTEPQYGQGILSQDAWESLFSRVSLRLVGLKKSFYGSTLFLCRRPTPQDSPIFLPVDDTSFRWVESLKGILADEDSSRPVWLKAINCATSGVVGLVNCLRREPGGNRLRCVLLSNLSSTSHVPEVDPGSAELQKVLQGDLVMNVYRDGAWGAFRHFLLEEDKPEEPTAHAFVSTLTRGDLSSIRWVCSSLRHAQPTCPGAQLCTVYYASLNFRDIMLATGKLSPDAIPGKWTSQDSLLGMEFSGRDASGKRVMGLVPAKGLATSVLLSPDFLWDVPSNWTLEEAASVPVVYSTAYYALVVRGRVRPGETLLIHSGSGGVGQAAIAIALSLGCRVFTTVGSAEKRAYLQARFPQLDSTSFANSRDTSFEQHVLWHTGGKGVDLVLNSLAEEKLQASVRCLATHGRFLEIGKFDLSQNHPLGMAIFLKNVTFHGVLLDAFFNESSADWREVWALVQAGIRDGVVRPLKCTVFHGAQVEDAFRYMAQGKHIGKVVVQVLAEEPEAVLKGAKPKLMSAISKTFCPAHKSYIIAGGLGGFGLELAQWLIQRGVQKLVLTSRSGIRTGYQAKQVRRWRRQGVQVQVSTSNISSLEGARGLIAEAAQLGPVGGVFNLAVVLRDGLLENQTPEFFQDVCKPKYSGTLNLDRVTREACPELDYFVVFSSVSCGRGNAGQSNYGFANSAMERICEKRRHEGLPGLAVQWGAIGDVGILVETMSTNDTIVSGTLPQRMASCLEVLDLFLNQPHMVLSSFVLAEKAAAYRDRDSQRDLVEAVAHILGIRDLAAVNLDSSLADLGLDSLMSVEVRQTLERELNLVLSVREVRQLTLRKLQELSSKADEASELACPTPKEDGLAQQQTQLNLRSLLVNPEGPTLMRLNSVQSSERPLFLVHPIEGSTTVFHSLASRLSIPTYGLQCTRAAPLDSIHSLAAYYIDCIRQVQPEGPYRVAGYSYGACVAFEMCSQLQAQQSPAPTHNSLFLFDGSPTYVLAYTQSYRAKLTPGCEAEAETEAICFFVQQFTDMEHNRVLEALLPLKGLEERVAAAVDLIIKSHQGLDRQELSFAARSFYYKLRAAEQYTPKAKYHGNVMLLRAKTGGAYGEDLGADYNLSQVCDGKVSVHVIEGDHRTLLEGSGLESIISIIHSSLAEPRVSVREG
Structure (SMILES),IC50 (FASN enzyme),Brain (μM) at 2 h [1],Plasma (μM) at 2 h [1],[Brain]/[Plasma] at 2 h [1],Brain (μM) at 8 h [1],Plasma (μM) at 8 h [1],[Brain]/[Plasma] at 8 h [1],"Brain (μM) at 2, 8 h (single value) [1]","Plasma (μM) at 2, 8 h (single value) [1]",Kp [1]
O=C(c1ccc(-c2nc3ccc(F)cc3o2)cc1)N1CCN(C(=O)C2(O)CC2)CC1 [Compound 3],100 to 1000 nM,1.8 µM,7.8 µM,0.23,0.89 µM,3.3 µM,0.27,,,
C[C@H]1CN(C(=O)c2ccc(-c3ccc4c(c3)ncn4C)cc2F)CCN1C(=O)C1(O)CC1 [Compound 10],< 100 nM,0.04 µM,4.4 µM,0.007,0.004 µM,1.0 µM,0.004,,,
C[C@@H]1CN(C(=O)c2ccc(-c3nc4ccc(F)cc4o3)cc2)C[C@H](C)N1C(=O)C1(O)CC1 [Compound 2],< 100 nM,0.3 µM,1.4 µM,0.20,0.01 µM,0.06 µM,0.21,,,
C[C@@H]1CN(C(=O)c2ccc(-c3nc4ccc(F)cc4o3)cc2)C[C@H](C)N1C(=O)C1(N)CC1 [Compound 8],100 to 1000 nM,,,,,,,0.038 µM,0.309 µM,0.12
O=C(c1ccc(-c2nc3ccc(F)cc3o2)cc1F)N1CCN(C(=O)C2(O)CC2)CC1 [Compound 5],100 to 1000 nM,1.4 µM,8.4 µM,0.17,0.62 µM,3.3 µM,0.19,,,
C[C@H]1CN(C(=O)c2ccc(-c3nc4ccc(F)cc4o3)cc2F)CCN1C(=O)C1(N)CC1 [Compound 7],100 to 1000 nM,,,,,,,0.013 µM,0.238 µM,0.05
C[C@H]1CN(C(=O)c2ccc(-c3ccc4c(c3)ncn4C)cc2)CCN1C(=O)C1(O)CC1 [Compound 11],< 100 nM,0.02 µM,4.4 µM,0.005,0.0 µM,0.6 µM,0.000,,,
C[C@H]1CN(C(=O)c2ccc(-c3nc4ccc(F)cc4o3)cc2F)CCN1C(=O)C1(O)CC1 [Compound 4],< 100 nM,1.6 µM,10.6 µM,0.15,0.17 µM,1.1 µM,0.16,,,
Cn1cc(-c2ccc(-c3ccc(C(=O)N4CCN(C(=O)C5(O)CC5)CC4)cc3)cc2)cn1 [Compound 13],< 100 nM,0.28 µM,5.8 µM,0.05,0.12 µM,3.1 µM,0.04,,,
Cn1cnc2cc(-c3ccc(C(=O)N4CCN(C(=O)C5(O)CC5)CC4)c(F)c3)ccc21 [Compound 9],< 100 nM,0.03 µM,5.2 µM,0.006,0.007 µM,0.6 µM,0.012,,,
C[C@H]1CN(C(=O)c2ccc(-c3nc4ccc(F)cc4o3)cc2)CCN1C(=O)C1(O)CC1 [Compound 1],100 to 1000 nM,1.3 µM,7.3 µM,0.18,0.40 µM,2.1 µM,0.20,,,
Cn1cnc2cc(-c3ccc(C(=O)N4CCN(C(=O)C5(O)CC5)CC4)cc3)ccc21 [Compound 12],100 to 1000 nM,0.02 µM,1.5 µM,0.014,0.0 µM,0.2 µM,0.000,,,
O=C(c1ccc(-c2nc3ccc(F)cc3o2)cc1F)N1CCN(C(=O)[C@H]2CCCO2)CC1 [Compound 6],100 to 1000 nM,,,,,,,0.042 µM,0.396 µM,0.105
